Assay results published in patent US12421279B2, “Cyclic peptide antiviral agents and methods using same” (priority 2016, dated 2025).
Several values for one entry are separate records, joined by “and”; a condition that tells them apart may be missing. Identical values can stand only once. Like-named read-outs stand apart in the source and are kept apart here. *1 amine or outer side, *2 acyl side, *3 side chain or, on linkers, in order; H or OH if unused. Where a SMILES comes first, the peptide text is derived from it. Bridges are numbered along the chain shown (N, C = ends). [ ]: non-standard residue; d: D form. X1 = O=C([C@@H]1C[C@H](n2cc(-c3ccc(-c4cccs4)cc3)nn2)CN1[*:1])[*:2]; X9 = CCc1ccc(-c2cn([C@H]3C[C@@H](C(=O)[*:2])N([*:1])C3)nn2)cc1; Bta = N[C@@H](Cc1csc2ccccc12)C(=O)O; Chg = N[C@H](C(=O)O)C1CCCCC1; Dab = NCC[C@H](N)C(=O)O

Assays:
wild type gp120 YU-2 = target: T1, wild type gp120 YU-2 (Human immunodeficiency virus type 1 group M subtype B, UniProt P35961); assay: Isothermal titration calorimetry binding to gp120; set-up: species or system HIV-1
T1 construct: into 30 μM of YU2 full-length gp120 at 25° C; made in house; host or cells: HEK 293F
Method: FIGS. 9A-9C illustrate cPT binding and thermodynamic profile of monomeric wild type gp120 YU-2 for cPTs 3 (FIGS. 9A and 9C) and 36 (FIGS. 9B and 9C). Compound solution, 390 μM (for 3) or 200 μM (for 36), was titrated in 8 μL steps into 30 μM of YU2 full-length gp120 at 25° C. in the reaction chamber of a VP-ITC instrument using 1×PBS buffer at pH 7.3. The resulting heat changes were integrated, and the values obtained were fitted to a quadratic binding equation (one site binding model).
cPT dissociation constants were determined at 25° C. on a VP-Isothermal Titration calorimeter (VP-ITC) system (MicroCal™, GE Healthcare, Freiburg). 200 μM (for 36) or 390 μM (for 3) compound solutions were in 8 μL steps titrated into 30 μM of wild type gp120 YU-2 at 25° C. using 1×PBS buffer at pH 7.3. The resulting heat change upon injection was integrated over a time range of 300 sec, and the obtained values were fitted to a standard single-site binding model using ORIGIN®.

HIV-1Bal.01 = details: for IC50: read-out: HIV-1Bal.01 infection inhibition IC50, HIV-1Bal.01 pseudovirus, HOS.T4.R5 cells
HOS.T4.R5 cells = system: HOS.T4.R5 cells
Method: cPTs 36 and 37 were tested for cytotoxicity in vitro with HOS.T4.R5 cells. The latter were seeded at […] per well and incubated with peptides as described elsewhere herein for the infection inhibition assays. Cell viability was determined using the tetrazolium salt premix reagent WST-1 from TaKaRa Bio, Inc., by following the manufacturer's protocol. The formazan product was measured 24 h post-exposure using a microplate reader (Molecular Devices) at an absorbance wavelength of 450 nm.

[1] = target: T2, HIV-1YU-2 gp120 binding to mAb 17b (Human immunodeficiency virus type 1 group M subtype B, UniProt P35961); assay: SPR competition assay: inhibition of gp120 binding to 17b (co-receptor surrogate); details: for inhibition of gp120 binding to 17b (in words): SPR competition
T2 construct: The purified DNA encoding gp120 YU-2 was transfected into HEK 293F cells; made in house; host or cells: HEK 293F
Method: (§1) SPR experiments are performed on a Biacore 3000 optical biosensor (GE Healthcare). All experiments are carried out at 25° C. using standard PBS buffer pH=7.4 with 0.005% surfactant Tween and 2% DMSO.
(§2) Three flow cells in the CM5 chip were used for amine coupling of different ligands through standard 1-ethyl-3-(3-(dimethylamino) propyl) carbodiimide (EDC)/N-hydroxysuccinamide (NHS) chemistry. Flow cell 1 containing 2000 RUs of immobilized antibody 2B6R (α-human IL5R) served as a negative control for flow cells 2 and 3 each of which contained 2000 RUs of immobilized CD4 and 17b respectively.
(§3) For kinetic analyses, typically 2000-3000 RUs of protein reagents are immobilized on SPR chips, and analytes are passed over the surface at 50-100 μL/min. Surface regeneration is achieved by a 5 μL injection of 10 mM HCl solution at 100 μL/min. […] Regeneration of the surface is achieved by a single 10 second pulse of 1.3 M NaCl/35 mM NaOH and single 5-second pulse of 10 mM glycine, pH 1.5, for sCD4 and mAb 17b, respectively.
(§4) Data analysis of SPR competition data was performed using BIAevaluation v4.1.1 software (GE). To correct for nonspecific binding, response signals from buffer injection and from control flow cell were subtracted from all sensorgrams. Inhibition potencies were determined by calculating the inhibitor concentration required for 50% inhibition of maximal binding (IC50). The inhibition curve was plotted and then fitted using the four-parameter equation as shown below using OriginPro 8 graphing software.
(§5) The cyclic peptides of the invention are tested against HIV-1 gp120 by SPR competition assays. A mixture of the cyclic peptide/gp120 solutions is passed over SPR chip immobilized with CD4 and 17b separately. The competition assay evaluates the ability of each peptide to inhibit the binding between gp120 and both soluble CD4 and 17b antibody, a surrogate for co-receptor.

[2] = target: T3, HIV-1YU-2 gp120 binding to sCD4 (Human immunodeficiency virus type 1 group M subtype B, UniProt P35961); assay: SPR competition assay: inhibition of gp120 binding to CD4; details: for inhibition of gp120 binding to CD4 (in words): SPR competition
T3 construct: The purified DNA encoding gp120 YU-2 was transfected into HEK 293F cells; made in house; host or cells: HEK 293F
Method: as §1, §2, §3, §4, §5

[3] = system: viruses pseudotyped with VSV-G; details: background; cited from earlier work
tissue explants model = details: concentrations up to 100 μM; cited from earlier work
monomeric gp120 = monomeric gp120 (Human immunodeficiency virus type 1 group M subtype B, UniProt P35961); details: background; cited from earlier work
[4] = system: subtype A, B and C isolates; details: read-out: IC50 range, neutralizes viral infection by subtype A; cited from earlier work
[5] = PBS buffer or PBS buffer with 5% DMSO
Description: Each cPT was synthesized starting from the corresponding amino acids: Asn for 34 and Dab for 35. Designation of “poor” and “good” solubility was based on behavior of cPT in PBS buffer or PBS buffer with 5% DMSO.

CC[C@H](C)[C@@H]1NC(=O)[C@H](CC(N)=O)NC(=O)[C@@H](N)CC(=O)NCCCC[C@@H](C(N)=O)NC(=O)[C@H](Cc2c[nH]c3ccccc23)NC(=O)[C@@H]2C[C@H](n3cc(-c4ccc(-c5cccs5)cc4)nn3)CN2C1=O [cPT 36, (3S,6S,14S,17S,20S,24S,25aS)-3-((1H-indol-3-yl)methyl)-14-amino-17-(2-amino-2-oxoethyl)-20-((S)-sec-butyl)-1,4,12,15,18,21-hexaoxo-24-(4-(4-(thiophen-2-yl)phenyl)-1H-1,2,3-triazol-1-yl)tetracosahydro-1H-pyrrolo[2,1-f][1,4,7,10,13,18]hexaazacyclotricosine-6-carboxamide] (H-DNI[X1]WK-NH2; lactam 1-6)
Kd (wild type gp120 YU-2): 350 nM
ΔH (wild type gp120 YU-2; ITC, 25° C.): -4.07 ± 0.06 kcal/mol
ΔS (wild type gp120 YU-2; ITC, 25° C.): 0.0159 kcal/mol
−TΔS (wild type gp120 YU-2; ITC, 25° C.): -4.74 kcal/mol
fold improvement in potency compared to 23 (HIV-1Bal.01; infection inhibition): > 2 fold
IC50 (HIV-1Bal.01): 105 nM and ~100 nM
IC50 (HIV-1Bal.01; listed as 29N-2): ~105 nM
selectivity index (SI) (HOS.T4.R5 cells; estimated from the IC50 and the CC50 values): > 1000
cytotoxicity (cell viability) (HOS.T4.R5 cells; highest concentrations used 100 μM, 24 h post-exposure): no cytotoxicity was detected
IC50 [1]: ~56 nM
inhibition of gp120 binding to 17b (in words) [1]: inhibited gp120 binding to both CD4 and 17b
inhibition of gp120 binding to 17b (in words) ([1]; listed as 29N-2): dual inhibitors of both CD4 and 17b binding to gp120
IC50 [2]: ~66 nM
inhibition of gp120 binding to CD4 (in words) [2]: inhibited gp120 binding to both CD4 and 17b
inhibition of gp120 binding to CD4 (in words) ([2]; listed as 29N-2): dual inhibitors of both CD4 and 17b binding to gp120

(S)-4-((S)-2-((S)-2-((2S,4S)-1-(L-arginyl-L-isoleucyl-L-asparaginyl-L-asparaginyl-L-alloisoleucyl)-4-(4-ferrocenyl-1H-1,2,3-triazol-1-yl)pyrrolidine-2-carboxamido)-3-(1H-indol-3-yl) propanamido)-3-hydroxypropanamido)-5-(((S)-1-(((S)-1-(((S)-1-amino-4-(methylthio)-1-oxobutan-2-yl)amino)-4-(methylthio)-1-oxobutan-2-yl)amino)-1-oxopropan-2-yl)amino)-5-oxopentanoic acid [HNG156]
neutralization of VSV-G pseudotyped viruses [3]: not viruses pseudotyped with VSV-G
toxicity (tissue explants model): no detectable toxicity
Kd (monomeric gp120): 7 nM
IC50 [4]: 80 to 62500 nM

CCc1ccc(-c2cn([C@H]3C[C@H]4C(=O)N[C@@H](Cc5csc6ccccc56)C(=O)N[C@H](C(N)=O)CCCCNC(=O)C[C@H](N)C(=O)N[C@@H](CCN)C(=O)N[C@@H](C5CCCCC5)C(=O)N4C3)nn2)cc1 [compound 35] (H-D[Dab][Chg][X9][Bta]K-NH2; lactam 1-6)
solubility [5]: better solubility

CCc1ccc(-c2cn([C@H]3C[C@H]4C(=O)N[C@@H](Cc5csc6ccccc56)C(=O)N[C@H](C(N)=O)CCCCNC(=O)C[C@H](N)C(=O)N[C@@H](CC(N)=O)C(=O)N[C@@H](C5CCCCC5)C(=O)N4C3)nn2)cc1 [compound 34] (H-DN[Chg][X9][Bta]K-NH2; lactam 1-6)
solubility [5]: poor solubility
